Laboratory results published in PubChem BioAssay AID248 (DTP/NCI, 2004).
Where “and” joins values, the source holds several entries; their conditions need not be identical. Identical values can stand only once. Inconclusive results and toxic doses are left out.

Test system: L1210 leukemia ip in BDF1 mice, survival T/C
Experiment: NCI In Vivo Anticancer Drug Screen. Data for tumor model L1210 Leukemia (intraperitoneal) in B6D2F1 (BDF1) mice
Conditions: endpoint: mean survival time, higher = longer survival
Method in brief: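 Tumor cells were implanted, animals were treated, and survival was followed. The result divides the treated measurement by the vehicle-control measurement.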

[1] = dose: 100.0 mg/kg/injection, schedule: Q01DX001 (ip), vehicle: saline with Tween-80
[2] = dose: 100.0 mg/kg/injection, schedule: Q01DX009 (ip), vehicle: saline with Tween-80
[3] = dose: 200.0 mg/kg/injection, schedule: Q01DX001 (ip), vehicle: saline with Tween-80
[4] = dose: 200.0 mg/kg/injection, schedule: Q01DX009 (ip), vehicle: saline with Tween-80
[5] = dose: 400.0 mg/kg/injection, schedule: Q01DX001 (ip), vehicle: saline with Tween-80
[6] = dose: 400.0 mg/kg/injection, schedule: Q01DX009 (ip), vehicle: saline with Tween-80
[7] = dose: 100.0 mg/kg/injection, schedule: Q01DX001 (ip), vehicle: saline
[8] = dose: 200.0 mg/kg/injection, schedule: Q01DX001 (ip), vehicle: saline
[9] = dose: 400.0 mg/kg/injection, schedule: Q01DX001 (ip), vehicle: saline
[10] = dose: 100.0 mg/kg/injection, schedule: Q04DX003 (ip), vehicle: saline with Tween-80
[11] = dose: 200.0 mg/kg/injection, schedule: Q04DX003 (ip), vehicle: saline with Tween-80
[12] = dose: 400.0 mg/kg/injection, schedule: Q04DX003 (ip), vehicle: saline with Tween-80
[13] = dose: 100.0 mg/kg/injection, schedule: Q01DX009 (ip), vehicle: Klucel (hydroxypropylcellulose) (HPC)
[14] = dose: 200.0 mg/kg/injection, schedule: Q01DX009 (ip), vehicle: Klucel (hydroxypropylcellulose) (HPC)
[15] = dose: 100.0 mg/kg/injection, schedule: Q04DX003 (ip), vehicle: Klucel (hydroxypropylcellulose) (HPC)
[16] = dose: 200.0 mg/kg/injection, schedule: Q04DX003 (ip), vehicle: Klucel (hydroxypropylcellulose) (HPC)
[17] = dose: 400.0 mg/kg/injection, schedule: Q04DX003 (ip), vehicle: Klucel (hydroxypropylcellulose) (HPC)
[18] = dose: 400.0 mg/kg/injection, schedule: Q01DX009 (ip), vehicle: Klucel (hydroxypropylcellulose) (HPC)

CC(O)c1ccc[n+]([O-])c1 (stereo not drawn)
T/C (dose: 100.0 mg/kg/injection, schedule: Q01DX009 (ip), vehicle: saline): 93 % of control
T/C (dose: 200.0 mg/kg/injection, schedule: Q01DX009 (ip), vehicle: saline): 96 % of control
T/C (dose: 400.0 mg/kg/injection, schedule: Q01DX009 (ip), vehicle: saline): 96 % of control

CC[n+]1cccc(NC(=O)c2ccc(NC(=O)c3ccc(C(=O)Nc4ccc(C(=O)Nc5ccc[n+](CC)c5)c(N)c4)cc3)cc2N)c1
T/C (dose: 2.5 mg/kg/injection, schedule: Q01DX015 (ip), vehicle: other): 187 % of control
T/C (dose: 5.0 mg/kg/injection, schedule: Q01DX015 (ip), vehicle: other): 264 % of control
T/C (dose: 8.0 mg/kg/injection, schedule: Q01DX015 (ip), vehicle: other): 246 % of control
T/C (dose: 10.0 mg/kg/injection, schedule: Q01DX015 (ip), vehicle: other): 150 % of control
T/C (dose: 22.0 mg/kg/injection, schedule: Q01DX001 (ip), vehicle: other): 156 % of control
T/C (dose: 22.0 mg/kg/injection, schedule: Q01DX015 (ip), vehicle: other): 114 % of control
T/C (dose: 25.0 mg/kg/injection, schedule: Q01DX001 (ip), vehicle: other): 174 % of control
T/C (dose: 33.0 mg/kg/injection, schedule: Q01DX001 (ip), vehicle: other): 168 % of control
T/C (dose: 37.0 mg/kg/injection, schedule: Q01DX015 (ip), vehicle: other): 90 % of control
T/C (dose: 50.0 mg/kg/injection, schedule: Q01DX001 (ip), vehicle: other): 203 % of control
T/C (dose: 55.0 mg/kg/injection, schedule: Q01DX001 (ip), vehicle: other): 219 % of control
T/C (dose: 75.0 mg/kg/injection, schedule: Q01DX001 (ip), vehicle: other): 212 % of control

CCOP(=O)(OCC)C(=Cc1ccccc1)P(=O)(OCC)OCC
T/C [1]: 106 % of control
T/C [2]: 107 % of control
T/C [3]: 103 % of control
T/C [4]: 105 % of control
T/C [5]: 103 % of control
T/C [6]: 107 % of control

CC(=O)N1C(=O)/C(=C\c2cc3c(cc2Br)OCO3)c2cc3c(cc21)OCO3
T/C (dose: 50.0 mg/kg/injection, schedule: Q01DX001 (ip), vehicle: saline): 118 % of control
T/C [7]: 100 % of control
T/C [8]: 106 % of control
T/C [9]: 106 % of control

OC(CC(O)(C(F)(F)F)C(F)(F)F)c1ccccc1 (stereo not drawn)
T/C [10]: 103 % of control
T/C [11]: 96 % of control
T/C [12]: 97 % of control

O=C(Nc1ccc(F)cc1)NN1CCOCC1
T/C (dose: 50.0 mg/kg/injection, schedule: Q01DX009 (ip), vehicle: Klucel (hydroxypropylcellulose) (HPC)): 104 % of control
T/C [13]: 90 % of control
T/C [14]: 97 % of control

CCCCCCCCCCCC(=O)Nc1ccc(C(C)C)cc1
T/C [1]: 102 % of control
T/C [3]: 87 % of control
T/C [5]: 92 % of control

O=C1c2ccccc2Cc2cscc21
T/C [10]: 91 % of control
T/C [11]: 91 % of control

CC(C)=CCC/C(C)=C/CC/C(C)=C/CC(=O)OCC=C(C)C
T/C (dose: 100.0 mg/kg/injection, schedule: Q04DX002 (ip), vehicle: saline with Tween-80): 89 % of control
T/C (dose: 200.0 mg/kg/injection, schedule: Q04DX002 (ip), vehicle: saline with Tween-80): 99 % of control
T/C (dose: 400.0 mg/kg/injection, schedule: Q04DX002 (ip), vehicle: saline with Tween-80): 99 % of control

Nc1cc(NC(c2ccccc2)c2ccccc2)c(N)c(N)n1
T/C (dose: 100.0 mg/kg/injection, schedule: Q01DX001 (ip), vehicle: gum acacia): 88 % of control
T/C (dose: 200.0 mg/kg/injection, schedule: Q01DX001 (ip), vehicle: gum acacia): 90 % of control
T/C (dose: 400.0 mg/kg/injection, schedule: Q01DX001 (ip), vehicle: gum acacia): 92 % of control

Nc1cc2ccc(S(=O)(=O)O)cc2cc1S(=O)(=O)O
T/C [15]: 100 % of control
T/C [16]: 97 % of control
T/C [17]: 91 % of control

ClC1=C(Cl)C2(Cl)C(Cl)CC1(Cl)C2(Cl)Cl (stereo not drawn)
T/C [7]: 97 % of control
T/C (dose: 100.0 mg/kg/injection, schedule: Q04DX003 (ip), vehicle: saline): 110 % of control
T/C [8]: 90 % of control
T/C (dose: 200.0 mg/kg/injection, schedule: Q04DX003 (ip), vehicle: saline): 96 % of control
T/C [9]: 97 % of control

O=C1C2C(C(=O)N1c1ccccc1)N2CCO (stereo not drawn)
T/C [13]: 107 % of control
T/C [15]: 113 % of control
T/C [14]: 103 % of control
T/C [16]: 108 % of control
T/C [18]: 97 % of control
T/C [17]: 113 % of control

O=C(O)c1ccc(S(=O)(=O)N(Cl)Cl)cc1
T/C [2]: 96 % of control
T/C [4]: 100 % of control
T/C [6]: 98 % of control

CCCCCCCCNNC(=O)c1ccccc1
T/C (dose: 100.0 mg/kg/injection, schedule: Q01DX001 (ip), vehicle: carboxymethylcellulose (CMC)): 95 % of control
T/C (dose: 200.0 mg/kg/injection, schedule: Q01DX001 (ip), vehicle: carboxymethylcellulose (CMC)): 97 % of control
T/C (dose: 400.0 mg/kg/injection, schedule: Q01DX001 (ip), vehicle: carboxymethylcellulose (CMC)): 92 % of control

O=C(Nc1nccs1)c1ccc(C(=O)Nc2nccs2)cc1
T/C (dose: 15.0 mg/kg/injection, schedule: Q01DX Z (ip), vehicle: carboxymethylcellulose (CMC)): 93 % of control
T/C (dose: 30.0 mg/kg/injection, schedule: Q01DX Z (ip), vehicle: carboxymethylcellulose (CMC)): 100 % of control
T/C (dose: 60.0 mg/kg/injection, schedule: Q01DX Z (ip), vehicle: carboxymethylcellulose (CMC)): 100 % of control
T/C (dose: 120.0 mg/kg/injection, schedule: Q01DX Z (ip), vehicle: carboxymethylcellulose (CMC)): 100 % of control and 90 % of control
T/C (dose: 180.0 mg/kg/injection, schedule: Q01DX Z (ip), vehicle: carboxymethylcellulose (CMC)): 96 % of control
T/C (dose: 270.0 mg/kg/injection, schedule: Q01DX Z (ip), vehicle: carboxymethylcellulose (CMC)): 96 % of control
T/C (dose: 400.0 mg/kg/injection, schedule: Q01DX Z (ip), vehicle: carboxymethylcellulose (CMC)): 95 % of control

Cc1nc(C)c(C)s1
T/C [13]: 95 % of control
T/C [15]: 102 % of control
T/C [14]: 95 % of control
T/C [16]: 100 % of control
T/C [18]: 90 % of control
T/C [17]: 104 % of control

CN(C)C(SCc1c(Cl)c(Cl)c(Cl)c(Cl)c1Cl)=[N+](C)C
T/C (dose: 3.0 mg/kg/injection, schedule: Q04DX002 (ip), vehicle: saline): 101 % of control
T/C (dose: 6.0 mg/kg/injection, schedule: Q04DX002 (ip), vehicle: saline): 93 % of control
T/C (dose: 12.0 mg/kg/injection, schedule: Q04DX002 (ip), vehicle: saline): 104 % of control

O=C(N/N=C/c1ccc2c(c1)CCC2)c1ccccc1
T/C [10]: 92 % of control
T/C [11]: 90 % of control
T/C [12]: 88 % of control

Cc1no[n+]([O-])c1C(=O)O
T/C (dose: 100.0 mg/kg/injection, schedule: Q04DX002 (ip), vehicle: Klucel (hydroxypropylcellulose) (HPC)): 95 % of control
T/C (dose: 200.0 mg/kg/injection, schedule: Q04DX002 (ip), vehicle: Klucel (hydroxypropylcellulose) (HPC)): 93 % of control
